The source of these data is paper PMC10609143, “Inhibitory Mechanisms of Lekethromycin in Dog Liver Cytochrome P450 Enzymes Based on UPLC-MS/MS Cocktail Method” (Molecules, 2023).

In one series the test system is CYP1A2. More on the design: method as in PMID 12433797. Conditions: in vitro drug metabolism studies; cited from earlier work.
The subject of another series is CYP2D6. Conditions: in vitro drug metabolism studies; cited from earlier work.
For series [1], the system named is CYP3A4. Conditions: dog liver microsomes, literature; cited from earlier work.
Series [2] relates to CYP3A4. Conditions: rat; cited from earlier work.
Series [3] can be described thus: Enzyme kinetic study of probe substrate in dog liver microsomes. The series is classed as in vitro ADME. Conditions: pH 7.4, probe testosterone (6β-hydroxylation), 15 min, 0.2 mg/mL, n = 3, read-out: Km (Michaelis–Menten constant). On the procedure:
(§1) The CYP450 enzymatic activities were characterized by their probe substrate reactions. Incubation mixtures were prepared in a total volume of 200 μL, which consisted of PBS (pH = 7.4), NADPH, probe substrates, and various concentrations of tested compounds. NADPH was added to initiate the reaction after a 5 min preincubation period at 37 °C in a thermos shaker. Of note, the volume of the final organic solvent in the incubation system should be below <1% (v/v). All experiments were performed in triplicate.
(§2) The Vmax and Km were calculated using GraphPad Prism v.8.0.2 (GraphPad software Inc., San Diego, CA, USA) via the Michaelis–Menten kinetic model. In addition, incubation times of 0–60 min were examined for mixed probe substrates. Various DLM protein concentrations (0.05–1 mg/mL) in the incubation mixture were carried out.
(§3) Then, 400 μL of cool ACN containing the 20 μL internal standard was added to terminate the reaction. Samples were vortexed for 2 min and centrifuged at 14,000 rpm for 10 min (4 °C). Next, the supernatant was steamed under nitrogen (40 °C) until dry. Then, it was dissolved with 200 µL of ACN: H2O = 80:20 (v/v). Finally, after filtering with a 0.22 μm membrane, an aliquot of 5 µL was injected into the UPLC-MS/MS for analysis.
Background: Liver microsomes are a subcellular fraction often used to study metabolism.

In series [4] the test system is CYP3A4. The series is described as above. Format: in vitro ADME. Conditions: testosterone 6β-hydroxylation, n = 3. As for the experimental part: as §1, §2, §3
The test system of series [5] is CYP3A4. Conditions: mini-pig; cited from earlier work.
Series [6] concerns CYP2A6. As to the kind of experiment: Enzyme kinetic study of probe substrate in dog liver microsomes. The series is classed as in vitro ADME.
Series [7] concerns CYP2A6. Also on record: method as in PMID 11307970. Conditions: dog liver microsomes, literature; cited from earlier work.
Substrate in series [8]: COc1ccc2c(c1)[C@]13CCCC[C@@H]1[C@H](C2)N(C)CC3
As to the kind of experiment: cells, lysate or membranes named. Conditions: other: dextromethorphan O-demethylation, dog liver microsomes, 15 min, 0.2 mg/mL, n = 3; pH 7.4.

Substrate in series [9]: CC(NC(C)(C)C)C(=O)c1cccc(Cl)c1
Nature of the series: Enzyme kinetic study of probe substrate in dog liver microsomes. The series is classed as in vitro ADME. Conditions: other: bupropion hydroxylation, 15 min, 0.2 mg/mL, n = 3, pH 7.4.

Substrate in series [10]: CCOc1ccc(NC(C)=O)cc1
As to the kind of experiment: cells, lysate or membranes named. Conditions: other: phenacetin O-deethylation, dog liver microsomes, 15 min, 0.2 mg/mL, n = 3; pH 7.4.

The Km is the concentration of substrate that gives half-maximal velocity. What is called Vmax is the top rate of the reaction or transport when substrate is in excess.

Read-outs that look alike come from different tables or passages of the source.

Consider `CCOc1ccc(NC(C)=O)cc1` [PH, phenacetin], for which the Km with CYP1A2 is 10 to 50 µM.
As for `COc1ccc2c(c1)[C@]13CCCC[C@@H]1[C@H](C2)N(C)CC3` [DEX, dextromethorphan], the Km with CYP2D6 is 2 to 10 µM.
Consider `C[C@]12CC[C@H]3[C@@H](CCC4=CC(=O)CC[C@@]43C)[C@@H]1CC[C@@H]2O` [TS, testosterone], for which the Km in the series on CYP3A4 [1] is 192 µM; in the series on CYP3A4 [2] it was 84 µM; in the series with CYP3A4 [5] it was 79 µM. Also, the maximal velocity (Vmax) in the series with CYP3A4 [1] is recorded as 68–180 pmol/min/mg/microsomal protein. For the same molecule, the Km at 15 min in [3] was determined as 85.2 µM. Also, the “Vmax (maximum rate of an enzyme-catalyzed reaction)” value with CYP3A4 [4] was 1.49 nmol/min/mg protein.
Regarding `O=c1ccc2ccccc2o1` [CAN, coumarin], in the series with CYP2A6 [6] (coumarin hydroxylation, n = 3), the “Vmax (maximum rate of an enzyme-catalyzed reaction)” value is reported as 0.034 nmol/min/mg protein. The Km at 15 min in the series on CYP2A6 [6] (pH 7.4, probe coumarin (hydroxylation), 15 min, 0.2 mg/mL, n = 3, read-out: Km (Michaelis–Menten constant)) was determined as 0.41 µM. For the same molecule, in the series on CYP2A6 [7], the Km was 2 to 4.3 µM and the Vmax is 1488–1656 pmol/min/mg/microsomal protein.

B1: CYP2D6 (Canis lupus familiaris) (protein)
chain: MGLLTGDTLGPLAVAVAIFLLLVDLMHRRRRWATRYPPGPTPVPMVGNLLQMDFQEPICYFSQLQGRFGNVFSLELAWTPVVVLNGLEAVREALVHRSEDTADRPPMPIYDHLGLGPESQGLFLARYGRAWREQRRFSLSTLRNFGLGRKSLEQWVTEEASCLCAAFAEQAGRPFGPGALLNKAVSNVISSLTYGRRFEYDDPRLLQLLELTQQALKQDSGFLREALNSIPVLLHIPGLASKVFSAQKAIITLTNEMIQEHRKTRDPTQPPRHLIDAFVDEIEKAKGNPKTSFNEENLCMVTSDLFIAGMVSTSITLTWALLLMILHPDVQRRVQQEIDEVIGREQLPEMGDQTRMPFTVAVIHEVQRFGDIVPLGVPHMTSRDTEVQGFLIPKGTTLITNLSSVLKDEKVWKKPFRFYPEHFLDAQGHFVKHEAFMPFSAGRRVCLGEPLARMELFLFFTCLLQRFSFSVPAGQPRPSDHGVFTFLKVPAPFQLCVEPR
Consider B1, for which, in series [8], the Km came out at 6.33 µM and the maximum rate (Vmax) worked out at 0.00616 µmol/min/mg.

B2: CYP2B6 (Canis lupus familiaris) (protein)
chain: MELSVLLLLALLTGLLLLMARGHPKAYGHLPPGPRPLPILGNFLQMDRKGLLKSFLRLQEKYGDVFTVYLGPRRTVMLCGIDAIREALVDNAEAFSGRGKIAVVEPVFQGYGVVFANGERWKTLRRFSLATMRDFGMGKRSVEERIQEEAQCLVEELRKTEGVLQDPTFFFHSMTANIICSIVFGKRFGYKDPEFLRLMNLFYVSFALISSFSSQMFELFHSFLKYFPGTHRQVYNNLQEIKAFIARMVEKHRETLDPSAPRDFIDAYLIRMDKEKAEPSSEFHHRNLIDTALSLFFAGTETTSTTLRYGFLLMLKYPHIAERIYKEIDQVIGPHRLPSLDDRAKMPYTDAVIHEIQRFGDLLPIGVPHMVTKDICFRGYIIPKGTEVFPILHSALNDPHYFEKPDVFNPDHFLDANGALKKNEAFIPFSIGKRICLGEGIARMELFLFFTTILQNFSVASPMAPEDIDLTPQEIGVGKLPPVYQISFLSRGGC
notes: from tissue; host or cells: dog liver microsomes (DLM)
B2: in [9], the Km was found to be 9.15 µM and the Vmax is 0.00143 µmol/min/mg.

B3: CYP1A2 (Canis lupus familiaris) (protein)
chain: MALSQMATGLLLASTIFCLILWVVKAWQPRLPKGLKSPPGPWGWPLLGNVLTLGKSPHLALSRLSQRYGDVLQIRIGSTPVLVLSGLDTIRQALVRQGDDFKGRPDLYSLSLITDSQSMSFSPDSGPVWAAGRRLAQNALNTFSIASDPASSCSCYLEEHVSKEAEALLSRLQEQMAEVGRFDPYNQVLLSVANVIGAMCFGHHFSQRSEEMLPLLMSSSDFVETVSSGNPLDFFPILQYMPNSALQRFKNFNQTFVQSLQKIVQEHYQDFDERSVQDITGALLKHNEKSSRASDGHIPQEKIVNLINDIFGAGFDTVTTAISWSLMYLVANPEIQRQIQKELDTVIGRARQPRLSDRPQLPLMEAFILEIFRHTSFVPFTIPHSTTKDTTLKGFYIPKECCVFINQWQVNHDQQVWGDPFAFRPERFLTADGTTINKTLSEKVMLFGMGKRRCIGEVLAKWEIFLFLAILLQRLEFSVPAGVKVDLTPIYGLTMKHTRCEHVQARPRFSIK
Consider B3, for which, in [10], the Km came to 5.39 µM and the Vmax is 0.00022 µmol/min/mg.
